{"source": "patent US8883228B2", "about": "“Composition for heart disease, its active ingredients, method to prepare same and uses thereof” (Tasly Pharmaceutical Group Co. Ltd., priority 2003, dated 2014)", "key": {"vegetative nerve balance": {"tested_on": "vegetative nerve balance", "assay": "Adjustment of vegetative nerve, heart rate variation (HRV)", "format": "in vivo, human", "conditions": "before and after treatment", "from_the_text": "This test uses “Wenger-Chongzhongchongxion” vegetative nerve balance factor analysis to test the heart rate variation (HRV), that is, the fluctuation in the average heartbeat over a certain period of time or over a long time period in the R-R period. Data, including effects on the sympathetic and para-sympathetic nerves can be calculated, to reflect the regulatory function of the vegetative nervous system. […] A decrease in HRV means the sympathetic nerve is excited. It is directly proportional to the symptoms in coronary heart disease and the possibility of sudden death and irregularity of heartbeat. DSP can control over-excitement of the […] nerve and regulate the balance in the vegetative nerve."}, "[1]": {"tested_on": "angina caused by coronary heart disease", "assay": "Senior group angina, comparative analysis of DSP and Nifedipine", "format": "in vivo, human", "conditions": "treatment of angina caused by coronary heart disease", "procedure": "Both DSP and Nifedipine can treat angina caused by coronary heart disease, but the latter has side effects which are not suitable for long-term use. In order to choose suitable drugs for patients with a need for long-term treatment of coronary heart disease, a comparative analysis of DSP and Nifedipine in the treatment of angina caused by coronary heart disease was carried out. DSP is made for angina. It activates blood circulation and relieves pain efficiently. […] Nifedipine is a short-term-effective calcium antagonist with a short half-life and functional time, so angina may occur during medication. […] Many reports state that long-term treatment with Nifedipine is harmful to coronary arteries. DSP can prevent decreased blood flow to the cardiac muscles and the development of atherosclerosis."}, "[2]": {"tested_on": "chronic pulmonary heart disease", "assay": "Healing effect on chronic pulmonary heart disease", "format": "in vivo, human", "conditions": "treatment group versus control group", "from_the_text": "The total efficacy rate of treatment group is 95% and that of the control group 76%, the difference of which is statistically significant (P[…]0.05). […] There was a significant difference in the efficacy of the two groups (X^2=4.46 and 4.95, P[…]0.05). […] There were obvious changes in blood flow in the Treatment group before and after treatment compared with that of the Control group (P[…]0.05). The blood viscosity of the control group decreased after treatment, but there was no statistical deviation."}, "[3]": {"tested_on": "Wistar rat's artificial heart", "assay": "Cardiac arrhythmia caused by exogenous free radicals, Langendorff perfusion", "conditions": "1 mg/L; ferrous sulfate/citrate free radicals alone up to 100%", "from_the_text": "Langendorff perfusion device was used to pour ferrous sulfate (0.25 mmol/L)/citrate (1.0 mmol/L) into the Wistar rat's artificial heart. The model of free radicals causing heart rhythm irregularity was replicated to observe the effects of DSP."}}}
{"compound": "O=[N+]([O-])O[C@H]1CO[C@H]2[C@@H]1OC[C@H]2O[N+](=O)[O-]", "note": "[Isordil]", "values": [{"measurement": "SDNN in R-R", "setting": "vegetative nerve balance", "result": "no significant difference"}, {"measurement": "percentage of y>+0.56 (vegetative nerve balance factor)", "setting": "vegetative nerve balance", "result": "not significant"}]}
{"compound": "COC(=O)C1=C(C)NC(C)=C(C(=O)OC)C1c1ccccc1[N+](=O)[O-]", "note": "[Nifedipine]", "values": [{"measurement": "side effects", "setting": "[1]", "result": "many side effects"}]}
{"compound": "OCCN(CCO)c1nc(N2CCCCC2)c2nc(N(CCO)CCO)nc(N3CCCCC3)c2n1", "note": "[persantin]", "values": [{"measurement": "total efficacy rate", "setting": "[2]", "result": 76, "unit": "%"}]}
{"compound": "COc1ccc(CCN(C)CCCC(C#N)(c2ccc(OC)c(OC)c2)C(C)C)cc1OC", "note": "(centres unmarked) [verapamil]", "values": [{"measurement": "irregularity percentage (cardiac arrhythmia)", "setting": "[3]", "result": 71.4, "unit": "%"}]}
